Data taken from US20110243924A1, “NOVEL METHODS” (priority 2007, published 2011).

Legend:
Men with COPD = assay: Clinical Phase II study, single inhaled doses by dry powder inhaler; type: in vivo, human; details: for mean FEV1 AUC(0-24)/24: placebo 1.597 L
From the text: Clinical Phase […] study: A double-blind, randothised, placebo-controlled, cross-over trial assesses the pharmacodynamics, pharmacokinetics and tolerability of aclidinium and its effects in COPD patients
Lung function measurements include FEV1 and FVC.

[1] = biological target: T1, M1 human muscarinic receptor (Homo sapiens, UniProt P11229); assay: Binding of aclidinium metabolites to muscarinic receptors
T1 sequence (P11229 1-460): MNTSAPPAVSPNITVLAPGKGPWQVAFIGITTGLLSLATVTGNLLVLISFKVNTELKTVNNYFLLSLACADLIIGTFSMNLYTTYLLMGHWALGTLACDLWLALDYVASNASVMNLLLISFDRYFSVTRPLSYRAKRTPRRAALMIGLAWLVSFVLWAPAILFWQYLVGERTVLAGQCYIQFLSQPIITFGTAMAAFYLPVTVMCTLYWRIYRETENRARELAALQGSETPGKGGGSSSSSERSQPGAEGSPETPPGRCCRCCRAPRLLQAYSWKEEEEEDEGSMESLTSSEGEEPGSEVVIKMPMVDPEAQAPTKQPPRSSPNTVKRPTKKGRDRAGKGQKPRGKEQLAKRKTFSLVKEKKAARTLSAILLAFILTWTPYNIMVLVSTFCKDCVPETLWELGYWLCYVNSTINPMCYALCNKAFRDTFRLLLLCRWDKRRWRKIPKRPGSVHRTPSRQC
Description: (§1) Aclidinium is rapidly hydrolyzed in human plasma in its alcohol and acid metabolites. […] The plasma half life of aclidinium in plasma is lower than 5 minutes for human. Moreover, aclidinium is stable in acid aqueous solutions (pH≦4) and the hydrolytic cleavage of the ester bond takes place at neutral and basic pHs.

[2] = biological target: T2, M4 human muscarinic receptor (Homo sapiens, UniProt P08173); assay: as above
T2 sequence (P08173 1-479): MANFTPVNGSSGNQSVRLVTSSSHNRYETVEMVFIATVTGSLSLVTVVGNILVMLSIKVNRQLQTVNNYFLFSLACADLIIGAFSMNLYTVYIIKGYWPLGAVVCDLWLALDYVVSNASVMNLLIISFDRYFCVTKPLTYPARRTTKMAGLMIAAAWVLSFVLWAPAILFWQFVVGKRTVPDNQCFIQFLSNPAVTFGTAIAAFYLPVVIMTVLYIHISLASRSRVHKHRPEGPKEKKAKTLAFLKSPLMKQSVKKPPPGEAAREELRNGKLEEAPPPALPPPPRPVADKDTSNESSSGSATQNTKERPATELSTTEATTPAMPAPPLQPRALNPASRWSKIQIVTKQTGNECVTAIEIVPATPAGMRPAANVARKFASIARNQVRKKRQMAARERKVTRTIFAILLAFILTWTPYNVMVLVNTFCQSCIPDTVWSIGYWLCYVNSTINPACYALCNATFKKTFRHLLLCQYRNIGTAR
Description: as §1

[3] = biological target: T3, M2 human muscarinic receptor (Homo sapiens, UniProt P08172); assay: as above
T3 sequence (P08172 1-466): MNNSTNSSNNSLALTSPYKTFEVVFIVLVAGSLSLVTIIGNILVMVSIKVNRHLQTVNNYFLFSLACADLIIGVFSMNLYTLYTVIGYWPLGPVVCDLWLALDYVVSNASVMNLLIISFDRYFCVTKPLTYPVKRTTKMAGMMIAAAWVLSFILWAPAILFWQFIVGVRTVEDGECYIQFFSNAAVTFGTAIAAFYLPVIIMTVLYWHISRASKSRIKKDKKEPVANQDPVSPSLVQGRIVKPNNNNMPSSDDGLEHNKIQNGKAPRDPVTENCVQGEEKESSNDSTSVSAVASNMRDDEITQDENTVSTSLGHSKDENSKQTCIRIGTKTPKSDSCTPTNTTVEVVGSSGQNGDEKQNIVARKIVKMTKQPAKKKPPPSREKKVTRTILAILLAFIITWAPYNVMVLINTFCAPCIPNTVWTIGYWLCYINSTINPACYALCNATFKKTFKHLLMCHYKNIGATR
Description: as §1

[4] = biological target: M3 human muscarinic receptor (Homo sapiens, UniProt P20309); assay: as above
Description: as §1

healthy male volunteers = assay: Clinical Phase I study, single inhaled doses by dry powder inhaler; type: in vivo, human
Description: Clinical Phase I study: Aclidinium bromide is tested in a Phase I, double-blind, partial cross-over, placebo controlled study to assess the activity, pharmacokinetics and tolerability of aclidinium.
Methods: 12 healthy male volunteers are randomly assigned to 1 of 4 treatment sequences comprising single doses of aclidinium (50, 300 and 600 micrograms) or placebo administered by dry powder inhaler. The washout period between administrations is at least 6 days. Efficacy endpoints are specific airway conductance (sGaw), airway resistance (Raw) and bronchial hyperresponsiveness (PC35 sGaw methacholine).

[5] = Stability in aqueous solutions; type: physicochemical; details: pH≦4
Description: as §1

[6] = In vitro stability in human plasma; type: in vitro ADME; details: human plasma (lithium heparin), 36° C.
Description: The in vitro experiments are carried out at 36° C. and at a concentration of 5 μg/ml (6 μl of a 1 mg/ml dimethyl sulfoxide solution of each substance is added to a final volume of 1.2 ml). After 3 minutes of pre-incubation, reaction is started by addition of the test substances. At pre-defined times of 0, 5, 15, 30 and 60 min., aliquots of 100 μl of the plasma are separated and the reaction stopped by the addition of 1 ml of a 20 mM, pH 4.0 sodium acetate buffer solution. The test substances are replaced with buffer for the control reactions. Human plasma is obtained from volunteers by written informed consent. The blood is collected in tubes containing lithium heparin as anticoagulant, immediately centrifuged at 4° C. and the resultant plasma stored at −20° C. when not in use.
Plasma samples, previously diluted with 1 ml of a 20 mM, pH 4.0 sodium acetate buffer solution, were loaded into the C2 cartridges. […] There are no significant endogenous peaks at retention times of the analytes that would interfere with their quantitation. […] The lower limit of quantitation is established at 5 mg/ml for all analytes.

[7] = after inhaled single doses 100, 300, 900 micrograms

M3 human muscarinic receptor, sequence (P20309 whole entry): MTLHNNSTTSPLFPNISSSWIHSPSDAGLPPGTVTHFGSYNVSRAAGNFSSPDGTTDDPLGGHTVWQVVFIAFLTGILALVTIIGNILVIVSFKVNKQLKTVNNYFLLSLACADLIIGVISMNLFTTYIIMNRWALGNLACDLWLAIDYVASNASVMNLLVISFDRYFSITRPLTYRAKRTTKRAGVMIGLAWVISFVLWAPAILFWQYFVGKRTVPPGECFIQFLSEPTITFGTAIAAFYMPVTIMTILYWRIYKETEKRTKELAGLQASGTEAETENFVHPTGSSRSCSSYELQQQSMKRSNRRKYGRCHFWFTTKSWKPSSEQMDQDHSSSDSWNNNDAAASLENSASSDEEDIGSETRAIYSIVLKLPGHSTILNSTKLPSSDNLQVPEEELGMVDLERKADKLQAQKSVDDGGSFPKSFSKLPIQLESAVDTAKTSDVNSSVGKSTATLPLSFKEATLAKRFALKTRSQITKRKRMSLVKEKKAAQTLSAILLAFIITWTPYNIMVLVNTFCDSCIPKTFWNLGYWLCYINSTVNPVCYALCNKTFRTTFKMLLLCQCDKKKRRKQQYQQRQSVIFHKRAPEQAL

Compound | plasma levels (Men with COPD; [7]) | affinity for M1 human muscarinic receptor [1] | affinity for M4 human muscarinic receptor [2] | affinity for M2 human muscarinic receptor [3] | affinity for M3 human muscarinic receptor [4] | plasma levels (Men with COPD; following the 900 microgram dose) | PC35 sGaw methacholine (methacholine dose required to decrease sGaw) (healthy male volunteers; aclidinium 300 micrograms, at 2 h, placebo 35.5) [mg/mL] | PC35 sGaw methacholine (methacholine dose required to decrease sGaw) (healthy male volunteers; aclidinium 300 micrograms, at 24 h, placebo 27.1) [mg/mL] | PC35 sGaw methacholine (methacholine dose required to decrease sGaw) (healthy male volunteers; aclidinium 600 micrograms, at 2 h, placebo 35.5) [mg/mL] | PC35 sGaw methacholine (methacholine dose required to decrease sGaw) (healthy male volunteers; aclidinium 600 micrograms, at 24 h, placebo 27.1) [mg/mL] | detection in plasma (healthy male volunteers; after inhaled single doses 50-600 micrograms) | study-drug-related adverse events (healthy male volunteers; single inhaled doses 50-600 micrograms) | mean FEV1 AUC(0-24)/24 (Men with COPD; aclidinium 100 micrograms, p=0.002) [L] | mean FEV1 AUC(0-24)/24 (Men with COPD; aclidinium 300 micrograms, p<0.0001) [L] | mean FEV1 AUC(0-24)/24 (Men with COPD; aclidinium 900 micrograms) [L] | cases of mildly increased sweating possibly related to treatment (Men with COPD; human, in vivo) | tolerability (Men with COPD; single inhaled doses 100-900 micrograms) | cases of mild or moderate headache possibly related to treatment (Men with COPD; vs 2 with placebo) [cases] | stability in acid aqueous solutions [5] | half-life at 5 μg/ml [6] [min]
O[C@H]1C[N+]2(CCCOc3ccccc3)CCC1CC2 [alcohol metabolite] | No plasma levels | devoid of significant affinity | devoid of significant affinity | devoid of significant affinity | devoid of significant affinity | – | – | – | – | – | – | – | – | – | – | – | – | – | – | –
O=C(O)C(O)(c1cccs1)c1cccs1 [acid metabolite] | – | devoid of significant affinity | devoid of significant affinity | devoid of significant affinity | devoid of significant affinity | low levels | – | – | – | – | – | – | – | – | – | – | – | – | – | –
O=C(O[C@H]1C[N+]2(CCCOc3ccccc3)CCC1CC2)C(O)(c1cccs1)c1cccs1 [aclidinium, 3(R)-(2-hydroxy-2,2-dithien-2-ylacetoxy)-1-(3-phenoxypropyl)-1-azoniabicyclo[2.2.2]octane] | No plasma levels | – | – | – | – | – | 207.1 | 142.7 | 256.0 | 181.7 | Neither aclidinium nor its metabolites are detected | no study-drug-related adverse events | 1.800 | 1.798 | 1.827 | 1 | well tolerated | 6 | stable | < 5
